In US8849577B2, “Methods of identifying biochemical pathways” (Metabolon, Inc., priority 2006, dated 2014):
“Also recorded” adds a separate entry of the source.

Tests used:
Assay type in all cases: cell-based, human
HepG2 = experiment: Metabolomic analysis of test compounds in HepG2 (hepatocyte) cultures; conditions: Hepatocytes, 30 μM, vs DMSO; for number of compounds affected, # decreased / number of compounds affected, # increased: p < 0.01
Description: (§1) The cell cultures used in this example were performed according to standard protocols with the cells in 10% FCS. […] The adipocytes were human and fully differentiated.
(§2) The target of the agent is not present in the cell cultures assayed, thus the changed compounds for each culture represent off-target effects, and therefore, the number of changed compounds can be used to generate a score that can be used as one criteria to rank the test compounds.

adipocyte cells = experiment: Metabolomic analysis of test compounds in adipocyte cultures; conditions: Primary Adipocytes, 30 μM, vs DMSO; for number of compounds affected, # decreased / number of compounds affected, # increased: p < 0.01
Description: as §1, §2

preadipocyte cells = experiment: Comparative metabolomic analysis of PPAR activators in preadipocyte cells; conditions: 3 hours treatment
Description: The cell used in this assay were preadipocyte cells from a human with a BMI of 23.29. The cells were plated at 1 million per well in 6-well plates. Eight cultures were used for each experimental group. The cells were washed with basal medium (1 ml/well) and treated with compounds in 1 ml of basal medium for 3 hours. After treatment, the cells were then washed with PBS (1 ml), two times and then trypsinized with 300 μl for 5 minutes at 37 degrees. One ml of PM-1 was then added per well to neutralized the trypsin and the cells were collected in 1.5 ml eppendorf tube. The cells were then pelleted by centrifugation (280×g) and the pellets were washed with PBS (1 ml). The cell pellets were then frozen at −80 degrees.

Row | SMILES | Ratio Drug/DMSO: 3-phospho-I-serine (preadipocyte cells) | Ratio Drug/DMSO: Isobar-17-includes-arginine-N-alpha-acetyl-ornithine (preadipocyte cells) | Ratio Drug/DMSO: Isobar-22-includes-glutamic acid-O-acetyl-L-serine (preadipocyte cells) | Ratio Drug/DMSO: Isobar-28-includes-L-threonine-L-allothreonine-L-homoserine (preadipocyte cells) | Ratio Drug/DMSO: L-alpha-glycerophosphorylcholine (preadipocyte cells) | Ratio Drug/DMSO: N-acetyl-D-galactosamine (preadipocyte cells) | Ratio Drug/DMSO: adenosine-5-monophosphate (preadipocyte cells) | Ratio Drug/DMSO: alanine (preadipocyte cells) | Ratio Drug/DMSO: carnitine (preadipocyte cells) | Ratio Drug/DMSO: citric acid (preadipocyte cells) | Ratio Drug/DMSO: gly-gly (preadipocyte cells) | Ratio Drug/DMSO: glycerol (preadipocyte cells) | Ratio Drug/DMSO: guanosine (preadipocyte cells) | Ratio Drug/DMSO: hypoxanthine (preadipocyte cells) | Ratio Drug/DMSO: inosine (preadipocyte cells) | Ratio Drug/DMSO: n-hexadecanoic acid (preadipocyte cells) | Ratio Drug/DMSO: octadecanoic acid (preadipocyte cells) | Ratio Drug/DMSO: pantothenic acid (preadipocyte cells) | Ratio Drug/DMSO: phosphoenolpyruvate (preadipocyte cells) | Ratio Drug/DMSO: serine (preadipocyte cells) | also measured
1 | Cc1cccc(C)c1OCC(=O)N[C@@H](Cc1ccccc1)[C@@H](O)C[C@H](Cc1ccccc1)NC(=O)[C@H](C(C)C)N1CCCNC1=O [LPV] | – | – | – | – | – | – | – | – | – | – | – | – | – | – | – | – | – | – | – | – | number of compounds affected, Total p < 0.01 (HepG2): 131; number of compounds affected, # decreased (HepG2): 27; number of compounds affected, # increased (HepG2): 104; number of compounds affected, Total p < 0.01 (adipocyte cells): 99; number of compounds affected, # decreased (adipocyte cells): 46; number of compounds affected, # increased (adipocyte cells): 53
2 | CC1(COc2ccc(CC3SC(=O)NC3=O)cc2)CCCCC1 (stereo not shown) [Ciglitazone] | 0.91 | 0.87 | 0.99 | 0.72 | 1.81 | 0.36 | 1.09 | 0.91 | 0.90 | 0.86 | 1.36 | 0.93 | 1.55 | 1.76 | 2.25 | 1.05 | 1.05 | 1.10 | 0.76 | 0.98 | Ratio Drug/DMSO: aspartate (preadipocyte cells): 1.29; Ratio Drug/DMSO: gamma-L-glutamyl-L-glutamin (preadipocyte cells): 0.73; Ratio Drug/DMSO: glutamine (preadipocyte cells): 0.78; Ratio Drug/DMSO: o-phosphoethanolamine (preadipocyte cells): 5.42; Ratio Drug/DMSO: oxidized-glutathione (preadipocyte cells): 0.77; Ratio Drug/DMSO: sn-glycerol-3-phosphate (preadipocyte cells): 1.53; Ratio Drug/DMSO: threonine (preadipocyte cells): 0.84; Ratio Drug/DMSO: tryptophan (preadipocyte cells): 0.91
3 | Cc1c(C)c2c(c(C)c1O)CCC(C)(COc1ccc(CC3SC(=O)NC3=O)cc1)O2 (stereo not shown) [Troglitazone, troglitazone] | 0.77 | 0.82 | 0.92 | 0.63 | 1.24 | 0.91 | 0.95 | 0.86 | 0.92 | 0.77 | 1.42 | 1.08 | 0.98 | 1.63 | 1.58 | 1.17 | 1.18 | 1.33 | 0.85 | 0.86 | Ratio Drug/DMSO: aspartate (preadipocyte cells): 2.06; Ratio Drug/DMSO: gamma-L-glutamyl-L-glutamin (preadipocyte cells): 0.64; Ratio Drug/DMSO: glutamine (preadipocyte cells): 0.76; Ratio Drug/DMSO: o-phosphoethanolamine (preadipocyte cells): 1.50; Ratio Drug/DMSO: oxidized-glutathione (preadipocyte cells): 0.77; Ratio Drug/DMSO: sn-glycerol-3-phosphate (preadipocyte cells): 1.42; Ratio Drug/DMSO: threonine (preadipocyte cells): 0.83; Ratio Drug/DMSO: tryptophan (preadipocyte cells): 0.98
4 | COC(=O)N[C@H](C(=O)N[C@@H](Cc1ccccc1)[C@@H](O)CN(Cc1ccc(-c2ccccn2)cc1)NC(=O)[C@@H](NC(=O)OC)C(C)(C)C)C(C)(C)C [ATV] | – | – | – | – | – | – | – | – | – | – | – | – | – | – | – | – | – | – | – | – | number of compounds affected, Total p < 0.01 (HepG2): 71; number of compounds affected, # decreased (HepG2): 55; number of compounds affected, # increased (HepG2): 16; number of compounds affected, Total p < 0.01 (adipocyte cells): 87; number of compounds affected, # decreased (adipocyte cells): 55; number of compounds affected, # increased (adipocyte cells): 32
5 | CC(C)(Sc1ccc(CCN(CCCCC2CCCCC2)C(=O)NC2CCCCC2)cc1)C(=O)O [GW7647] | 0.89 | 0.97 | 0.86 | 0.82 | 1.31 | 0.98 | 1.41 | 0.95 | 0.83 | 1.06 | 1.12 | 1.14 | 1.22 | 1.89 | 1.89 | 1.02 | 1.02 | 0.96 | 0.91 | 1.05 | Ratio Drug/DMSO: sn-glycerol-3-phosphate (preadipocyte cells): 1.43; Ratio Drug/DMSO: tryptophan (preadipocyte cells): 1.06; metabolite change relative to DMSO control (preadipocyte cells): increase in glycerol; also recorded: more carnitine is being utilized to shuffle FA into the mitochondria and hence, levels decrease
